Assay results published in patent US7081467B2, “C2-disubstituted indan-1-ones and their derivatives, processes for their preparation and their use as pharmaceuticals” (Sanofi-aventis Deutschland GmbH, priority 2001, dated 2006).

Experiments:
female NMRI mice = test: Anorectic action: cumulative milk consumption after 24 h feed removal; format: in vivo; conditions: feed removed 24 h, dose 20 mg/kg (ip or po, route not specified)
Method: The anorectic action was tested on female NMRI mice. After removal of feed for 24 hours, the preparation to be tested was administered intraperitoneally (ip) or by gavage (po). The animals were housed singly and, with free access to drinking water, they were offered evaporated milk 30 minutes after administration of the preparation. The consumption of evaporated milk was determined and the general behavior of the animals was monitored every half an hour for 7 hours. The measured milk consumption was compared to that of vehicle-treated control animals.

CS(=O)(=O)C1(F)Cc2cc(Cl)ccc2C1=O (stereo not drawn) [Example 1, 5-Chloro-2-fluoro-2-methanesulfonylindan-1-one]
Reduction in cumulative milk consumption as % of the control (female NMRI mice; compared with vehicle-treated control animals): 48%
cumulative milk consumption by treated animals (female NMRI mice; evaporated milk offered 30 min after administration, monitored for 7 hours): 5/2.00 ml
melting point: 150 °C
